Results: patent publication US20230097157A1, “Bicyclic Pyridin-2-one and pyrimidin-4-one Derivatives Useful As a Factor XIa Inhibitors” (Janssen Pharmaceutica NV, priority 2021, published 2023)
Read-outs that look alike come from different tables or passages of the source.

How the values were obtained:
Factor XIa = Factor XIa (Homo sapiens, UniProt P03951); test: Factor XIa inhibition assay (FLINT) utilizing a fluorophore-quencher pair peptide substrate 5Fam-[…]-K5Tamra; format: biochemical; conditions: kinetic (KIN) reads, read-out: FXIa KIN Inh IC50
Sequence of Factor XIa (P03951 388-625 limits assumed): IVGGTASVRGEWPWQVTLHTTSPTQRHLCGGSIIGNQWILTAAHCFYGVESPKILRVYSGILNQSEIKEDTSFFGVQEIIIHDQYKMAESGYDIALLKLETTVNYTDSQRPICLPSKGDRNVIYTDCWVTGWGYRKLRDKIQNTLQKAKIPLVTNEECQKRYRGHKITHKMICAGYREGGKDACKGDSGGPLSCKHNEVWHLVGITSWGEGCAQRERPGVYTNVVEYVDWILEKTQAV
Sequence of Factor XIa (P03951 19-387 partner limits assumed): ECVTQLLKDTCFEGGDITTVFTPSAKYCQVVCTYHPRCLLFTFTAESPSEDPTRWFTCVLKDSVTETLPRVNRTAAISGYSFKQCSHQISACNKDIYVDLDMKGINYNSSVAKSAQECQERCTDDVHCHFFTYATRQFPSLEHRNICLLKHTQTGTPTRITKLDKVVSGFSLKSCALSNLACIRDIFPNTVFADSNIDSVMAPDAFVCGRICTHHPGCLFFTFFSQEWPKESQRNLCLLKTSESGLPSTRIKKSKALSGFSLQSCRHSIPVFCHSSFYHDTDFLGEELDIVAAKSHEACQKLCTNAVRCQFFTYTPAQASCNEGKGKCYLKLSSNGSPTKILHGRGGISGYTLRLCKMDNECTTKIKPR
In short: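 Compounds were tested as 11-point 3-fold dilutions from 100 nM (2% DMSO). They were preincubated 30 min with FXIa in 50 mM Tris pH 7.5, 5 mM CaCl2, then 15 μM fluorophore-quencher peptide was added. Cleavage was followed at 485/520 nm over 30 min, and IC50 was derived by 4-parameter logistic fit.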

human plasma kallikrein = human plasma kallikrein (Homo sapiens, UniProt P03952); test: Kallikrein inhibition assay (FLINT) utilizing a quenched AMC peptide substrate Z-Gly-Pro-Arg-AMC; format: biochemical; conditions: kinetic (KIN) reads, read-out: Kallikrein KIN Inh IC50
Sequence of human plasma kallikrein (P03952 391-638 limits assumed): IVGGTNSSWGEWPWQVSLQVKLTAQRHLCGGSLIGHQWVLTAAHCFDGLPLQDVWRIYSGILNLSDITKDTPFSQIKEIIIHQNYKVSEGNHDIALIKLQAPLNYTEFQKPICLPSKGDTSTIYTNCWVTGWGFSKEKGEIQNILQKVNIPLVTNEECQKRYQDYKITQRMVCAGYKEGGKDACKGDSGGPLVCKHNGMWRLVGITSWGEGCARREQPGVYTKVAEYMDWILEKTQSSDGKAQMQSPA
Sequence of human plasma kallikrein (P03952 20-390 partner limits assumed): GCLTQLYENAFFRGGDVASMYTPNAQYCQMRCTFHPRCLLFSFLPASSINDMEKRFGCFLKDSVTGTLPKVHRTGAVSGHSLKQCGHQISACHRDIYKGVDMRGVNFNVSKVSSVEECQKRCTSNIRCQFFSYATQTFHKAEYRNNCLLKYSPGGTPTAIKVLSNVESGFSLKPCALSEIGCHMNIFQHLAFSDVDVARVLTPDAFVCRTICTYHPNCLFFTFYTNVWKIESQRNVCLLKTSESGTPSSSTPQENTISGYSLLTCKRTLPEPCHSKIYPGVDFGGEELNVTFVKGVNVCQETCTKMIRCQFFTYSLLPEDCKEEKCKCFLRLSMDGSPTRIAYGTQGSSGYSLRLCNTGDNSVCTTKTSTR
In short: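 IC50 from a 4-parameter logistic fit of % inhibition from 11 concentrations (3-fold, top 1 μM, 2% DMSO). Compound pre-incubated 30 min with 2 nM enzyme in Tris pH 7.5, NaCl, CaCl2, BSA, CHAPS, then 50 μM AMC peptide substrate added. Fluorescence (340/440 nm) followed every 5 min for 30 min at room temperature.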

C[C@H]1C[C@H](c2ncc(-c3cn[nH]c3)[nH]2)n2c1nc(-c1c(-n3cnnn3)ccc(Cl)c1F)cc2=O (stereo in doubt) [Example 109, (6*R,8*S)-6-(5-(1H-Pyrazol-4-yl)-1H-imidazol-2-yl)-2-(3-chloro-2-fluoro-6-(1H-tetrazol-1-yl)phenyl)-8-methyl-7,8-dihydropyrrolo[1,2-a]pyrimidin-4(6H)-one]
IC50 (Factor XIa; unit μM): > 10 µM
IC50 (human plasma kallikrein; unit μM): > 10 µM

C[C@@H]1C[C@@H](c2ncc(-c3cn[nH]c3)[nH]2)n2c1nc(-c1c(-n3cnnn3)ccc(Cl)c1F)cc2=O (stereo in doubt) [Example 111, (6*S,8*R)-6-(5-(1H-Pyrazol-4-yl)-1H-imidazol-2-yl)-2-(3-chloro-2-fluoro-6-(1H-tetrazol-1-yl)phenyl)-8-methyl-7,8-dihydropyrrolo[1,2-a]pyrimidin-4(6H)-one]
IC50 (Factor XIa; values in nM): 0.0226 µM
IC50 (human plasma kallikrein; values in nM): 0.145 µM

C[C@@H]1C[C@H](c2ncc(-c3ccc4c(c3)CC(=O)N4)[nH]2)n2c1nc(-c1c(-n3cnnn3)ccc(Cl)c1F)cc2=O (stereo in doubt) [Example 112, (6*R,8*R)-2-(3-Chloro-2-fluoro-6-(1H-tetrazol-1-yl)phenyl)-8-methyl-6-(5-(2-oxoindolin-5-yl)-1H-imidazol-2-yl)-7,8-dihydropyrrolo[1,2-a]pyrimidin-4(6H)-one]
IC50 (Factor XIa; values in nM): 0.0016 µM
IC50 (human plasma kallikrein; values in nM): 0.0078 µM

C[C@H]1C[C@@H](c2ncc(-c3ccc4c(c3)CC(=O)N4)[nH]2)n2c1nc(-c1c(-n3cnnn3)ccc(Cl)c1F)cc2=O (stereo in doubt) [Example 113, (6*S,8*S)-2-(3-Chloro-2-fluoro-6-(1H-tetrazol-1-yl)phenyl)-8-methyl-6-(5-(2-oxoindolin-5-yl)-1H-imidazol-2-yl)-7,8-dihydropyrrolo[1,2-a]pyrimidin-4(6H)-one]
IC50 (Factor XIa; values in nM): 0.0007 µM
IC50 (human plasma kallikrein; values in nM): 0.0168 µM

C[C@@H]1C[C@H](c2ncc(-c3cnc(N)nc3)[nH]2)n2c1nc(-c1c(-n3cnnn3)ccc(Cl)c1F)cc2=O (stereo in doubt) [Example 114, (6*R,8*R)-6-(5-(2-Aminopyrimidin-5-yl)-1H-imidazol-2-yl)-2-(3-chloro-2-fluoro-6-(1H-tetrazol-1-yl)phenyl)-8-methyl-7,8-dihydropyrrolo[1,2-a]pyrimidin-4(6H)-one]
IC50 (Factor XIa; values in nM): 0.111 µM
IC50 (human plasma kallikrein; values in nM): 0.284 µM

COC(=O)Nc1ccc(-c2cnc([C@H]3C[C@H](C)c4nc(-c5c(-n6cnnn6)ccc(Cl)c5F)cc(=O)n43)[nH]2)cn1 (stereo in doubt) [Example 115, methyl (5-(2-((6R*,8S*)-2-(3-Chloro-2-fluoro-6-(1H-tetrazol-1-yl)phenyl)-8-methyl-4-oxo-4,6,7,8-tetrahydropyrrolo[1,2-a]pyrimidin-6-yl)-1H-imidazol-5-yl)pyridin-2-yl)carbamate]
IC50 (Factor XIa; values in nM): 0.247 µM
IC50 (human plasma kallikrein; unit μM): 6 µM

COC(=O)Nc1ccc(-c2cnc([C@@H]3C[C@H](C)c4nc(-c5c(-n6cnnn6)ccc(Cl)c5F)cc(=O)n43)[nH]2)cn1 (stereo in doubt) [Example 116, Methyl (5-(2-((6*S,8*S)-2-(3-Chloro-2-fluoro-6-(1H-tetrazol-1-yl)phenyl)-8-methyl-4-oxo-4,6,7,8-tetrahydropyrrolo[1,2-a]pyrimidin-6-yl)-1H-imidazol-5-yl)pyridin-2-yl)carbamate]
IC50 (Factor XIa; values in nM): 0.0012 µM
IC50 (human plasma kallikrein; values in nM): 0.0268 µM

COC(=O)Nc1ccc(-c2cnc([C@H]3C[C@@H](C)c4nc(-c5c(-n6cnnn6)ccc(Cl)c5F)cc(=O)n43)[nH]2)cn1 (stereo in doubt) [Example 117, Methyl (5-(2-((6*R,8*R)-2-(3-Chloro-2-fluoro-6-(1H-tetrazol-1-yl)phenyl)-8-methyl-4-oxo-4,6,7,8-tetrahydropyrrolo[1,2-a]pyrimidin-6-yl)-1H-imidazol-5-yl)pyridin-2-yl)carbamate]
IC50 (Factor XIa; unit μM): 6.1 µM
IC50 (human plasma kallikrein; unit μM): > 10 µM

COC(=O)Nc1ccc(-c2cnc([C@@H]3C[C@@H](C)c4nc(-c5c(-n6cnnn6)ccc(Cl)c5F)cc(=O)n43)[nH]2)cn1 (stereo in doubt) [Example 118, Methyl (5-(2-((6*S,8*R)-2-(3-Chloro-2-fluoro-6-(1H-tetrazol-1-yl)phenyl)-8-methyl-4-oxo-4,6,7,8-tetrahydropyrrolo[1,2-a]pyrimidin-6-yl)-1H-imidazol-5-yl)pyridin-2-yl)carbamate]
IC50 (Factor XIa; values in nM): 0.0079 µM
IC50 (human plasma kallikrein; values in nM): 0.015 µM

C[C@H]1C[C@@H](c2ncc(-c3cnc(N)nc3)[nH]2)n2c1nc(-c1c(-n3cnnn3)ccc(Cl)c1F)cc2=O (stereo in doubt) [Example 119, (6*S,8*S)-6-(5-(2-Aminopyrimidin-5-yl)-1H-imidazol-2-yl)-2-(3-chloro-2-fluoro-6-(1H-tetrazol-1-yl)phenyl)-8-methyl-7,8-dihydropyrrolo[1,2-a]pyrimidin-4(6H)-one]
IC50 (Factor XIa; values in nM): 0.0087 µM
IC50 (human plasma kallikrein; values in nM): 0.287 µM

C[C@@H]1C[C@H](c2ncc(-c3ccc(NC(=O)C4CC4)nc3)[nH]2)n2c1nc(-c1c(-n3cnnn3)ccc(Cl)c1F)cc2=O (stereo in doubt) [Example 120, N-(5-(2-((6*R,8*R)-2-(3-Chloro-2-fluoro-6-(1H-tetrazol-1-yl)phenyl)-8-methyl-4-oxo-4,6,7,8-tetrahydropyrrolo[1,2-a]pyrimidin-6-yl)-1H-imidazol-5-yl)pyridin-2-yl)cyclopropanecarboxamide]
IC50 (Factor XIa; values in nM): 0.0128 µM
IC50 (human plasma kallikrein; values in nM): 0.0112 µM

C[C@H]1C[C@H](c2ncc(-c3ccc(NC(=O)C4CC4)nc3)[nH]2)n2c1nc(-c1c(-n3cnnn3)ccc(Cl)c1F)cc2=O (stereo in doubt) [Example 121, N-(5-(2-((6*R,8*S)-2-(3-Chloro-2-fluoro-6-(1H-tetrazol-1-yl)phenyl)-8-methyl-4-oxo-4,6,7,8-tetrahydropyrrolo[1,2-a]pyrimidin-6-yl)-1H-imidazol-5-yl)pyridin-2-yl)cyclopropanecarboxamide]
IC50 (Factor XIa; values in nM): 0.675 µM
IC50 (human plasma kallikrein; unit μM): 4.8 µM

C[C@@H]1C[C@@H](c2ncc(-c3ccc(NC(=O)C4CC4)nc3)[nH]2)n2c1nc(-c1c(-n3cnnn3)ccc(Cl)c1F)cc2=O (stereo in doubt) [Example 122, N-(5-(2-((6*S,8*R)-2-(3-Chloro-2-fluoro-6-(1H-tetrazol-1-yl)phenyl)-8-methyl-4-oxo-4,6,7,8-tetrahydropyrrolo[1,2-a]pyrimidin-6-yl)-1H-imidazol-5-yl)pyridin-2-yl)cyclopropanecarboxamide]
IC50 (Factor XIa; values in nM): 0.095 µM
IC50 (human plasma kallikrein; unit μM): 5.6 µM

C[C@H]1C[C@@H](c2ncc(-c3ccc(NC(=O)C4CC4)nc3)[nH]2)n2c1nc(-c1c(-n3cnnn3)ccc(Cl)c1F)cc2=O (stereo in doubt) [Example 123, N-(5-(2-((6*S,8*S)-2-(3-Chloro-2-fluoro-6-(1H-tetrazol-1-yl)phenyl)-8-methyl-4-oxo-4,6,7,8-tetrahydropyrrolo[1,2-a]pyrimidin-6-yl)-1H-imidazol-5-yl)pyridin-2-yl)cyclopropanecarboxamide]
IC50 (Factor XIa; values in nM): 0.0031 µM
IC50 (human plasma kallikrein; values in nM): 0.0175 µM

COC(=O)Nc1ccc(-c2cnc([C@H]3C[C@H](C)c4nc(-c5c(-n6cnnn6)ccc(Cl)c5F)cc(=O)n43)[nH]2)cc1 (stereo in doubt) [Example 124, Methyl (4-(2-((6*R,8*S)-2-(3-Chloro-2-fluoro-6-(1H-tetrazol-1-yl)phenyl)-8-methyl-4-oxo-4,6,7,8-tetrahydropyrrolo[1,2-a]pyrimidin-6-yl)-1H-imidazol-5-yl)phenyl)carbamate]
IC50 (Factor XIa; values in nM): 0.0083 µM
IC50 (human plasma kallikrein; values in nM): 0.0529 µM

COC(=O)Nc1ccc(-c2cnc([C@@H]3C[C@H](C)c4nc(-c5c(-n6cnnn6)ccc(Cl)c5F)cc(=O)n43)[nH]2)cc1 (stereo in doubt) [Example 125, Methyl (4-(2-((6*S,8*S)-2-(3-Chloro-2-fluoro-6-(1H-tetrazol-1-yl)phenyl)-8-methyl-4-oxo-4,6,7,8-tetrahydropyrrolo[1,2-a]pyrimidin-6-yl)-1H-imidazol-5-yl)phenyl)carbamate]
IC50 (Factor XIa; values in nM): 0.0005 µM
IC50 (human plasma kallikrein; values in nM): 0.003 µM

COC(=O)Nc1ccc(-c2cnc([C@@H]3C[C@@H](C)c4nc(-c5c(-n6cnnn6)ccc(Cl)c5F)cc(=O)n43)[nH]2)cc1 (stereo in doubt) [Example 126, Methyl (4-(2-((6*S,8*R)-2-(3-Chloro-2-fluoro-6-(1H-tetrazol-1-yl)phenyl)-8-methyl-4-oxo-4,6,7,8-tetrahydropyrrolo[1,2-a]pyrimidin-6-yl)-1H-imidazol-5-yl)phenyl)carbamate]
IC50 (Factor XIa; values in nM): 0.0003 µM
IC50 (human plasma kallikrein; values in nM): 0.0034 µM

COC(=O)Nc1ccc(-c2cnc([C@H]3C[C@@H](C)c4nc(-c5c(-n6cnnn6)ccc(Cl)c5F)cc(=O)n43)[nH]2)cc1 (stereo in doubt) [Example 127, Methyl (4-(2-((6*R,8*R)-2-(3-Chloro-2-fluoro-6-(1H-tetrazol-1-yl)phenyl)-8-methyl-4-oxo-4,6,7,8-tetrahydropyrrolo[1,2-a]pyrimidin-6-yl)-1H-imidazol-5-yl)phenyl)carbamate]
IC50 (Factor XIa; values in nM): 0.19 µM
IC50 (human plasma kallikrein; values in nM): 0.723 µM

Cc1nc(N)c(F)cc1-c1cnc([C@H]2C[C@@H](C)c3nc(-c4c(-n5cnnn5)ccc(Cl)c4F)cc(=O)n32)[nH]1 (stereo in doubt) [Example 128, (6*R,8*R)-6-(5-(6-Amino-5-fluoro-2-methylpyridin-3-yl)-1H-imidazol-2-yl)-2-(3-chloro-2-fluoro-6-(1H-tetrazol-1-yl)phenyl)-8-methyl-7,8-dihydropyrrolo[1,2-a]pyrimidin-4(6H)-one]
IC50 (Factor XIa; values in nM): 0.283 µM
IC50 (human plasma kallikrein; values in nM): 0.747 µM
